Source: patent publication US8828966B2, “Method for treatment of macular degeneration by modulating P2Y12 or P2X7 receptors” (priority 2006, dated 2014)

Tests used:
[1] = test system: ARPE-19 cells; test: Lysosomal pH (pHL) with LysoSensor Yellow/Blue, high through-put screen; assay type: cell-based, human; settings: for effect on pHL of cells treated with tamoxifen: tamoxifen concentration not stated, A68930 and A77636 at 1 μM; for effect on pHL, agent alone: cells without other alkalinizing agent, NH4Cl 10 mM, BAF 200 nM, CHQ 20 μM, CFTR-172 10 μM, LDL 10 μg/ml, others not given; for effect on pHL of cells treated with chloroquine: chloroquine (20 μM with CGS21680 100 nM); for effect on pHL of cells treated with 30 μM tamoxifen: CFTRAct16 at 10 μM
Procedure: Lysosensor Yellow/Blue co-localized with the Lysotracker Red dye in small vesicles, with a distribution consistent with lysosomal origin. Measurements of pHL were performed using a high throughput screening (HTS) protocol to maximize output and minimize variation using ARPE-19 cells in 96 well plates. […] Loading for 5 min. at 23° C. with 5 μM lysosensor, followed by 15 min. for internalization, produced stable and reproducible results.
The ratio was converted to pH by calibrating with KCl buffered to pH 4.0-6.0 in the presence of monensin and nigericin. Calibration indicated a baseline pH of 4.4 to 4.5, supporting lysosomal localization. […] NH4Cl decreased the ratios slightly at 380 nm. Nevertheless, absent the addition of the dye, none of these compounds, or any others, altered the fluorescent signal at 340 or 380 nm, showing a specificity of the measured change to pHL. […] This quantification is necessary to predict the potential effectiveness of acidifying drugs to restore lysosomal enzyme activity.
Extensive trials determined that the optimal response is obtained with 5 minute dye loading and 15 minute post-incubation. […] All reagents were from Sigma Chemical Corp. unless otherwise indicated.
In general, each condition below used 3-12 independent wells per plate, in 3-6 separate plates. As levels from individual plates varied, data was normalized to the mean pHL for control wells from each plate. Fluorescent ratios were converted to pH following calibration performed on each plate as described. Incubation with Lysosensor Yellow/Blue was kept constant and all measurements were performed 15 min after removal of dye from the bath to ensure continuity. Significance was determined with a one-way ANOVA and Tukey post test. Drugs were always tested on control cells to ensure modification of healthy RPE cells was minimal, and cells were not exposed to dye to make sure effects were specific. All background was subtracted from the fluorescence excited at 340 and 380 nm independently before calculation of the ratio.

[2] = test system: ARPE-19 cells; test: FACS analysis of autofluorescence (excited at 488 nm); assay type: cell-based, human; settings: for effect on autofluorescence enhanced by POS+CHQ: photoreceptor outer segments plus 10 μM chloroquine, 7 days
From the text: To maintain a balance between the synthesis, degradation, and subsequent recycling of cellular products there are a variety of autophagic responses, but all involve degradation of intracellular components via the lysosome. Typically, autophagy involves the formation of a membrane around a targeted region of the cell, separating the contents from the rest of the cytoplasm, and then the resultant vesicle fuses with a lysosome and the contents are subsequently degraded.

[3] = test system: ARPE-19 cells; test: Clearance (degradation) of calcein-labeled photoreceptor outer segments; assay type: cell-based, human
Procedure: Outer Segment Degradation: Bovine retinas were homogenized in 20% sucrose with 130 mM NaCl, 20 mM Tris-HCl, 10 mM glucose, 5 mM taurine and 2 mM MgC12 (pH 7.20). The homogenate was placed in ultracentrifuge tubes with 20%, 27%, 33%, 41%, 50% and 60% sucrose, respectively, and centrifuged for 70 minutes at 28,000 rpm on a SW28 rotor (4° C.). The supernatant was filtered, diluted in 0.02M Tris-HCl buffer (pH 7.2) and centrifuged at 13,000×g for 10 minutes (4° C.). The pellet was resuspended in […], 0.1 mM NaCl and 2.5% sucrose. Outer segments were loaded with 5 μM calcein-AM in PBS for 10 minutes, and spun 2× at 14,000 rpm to wash. Outer segments were then diluted 1:100 in growth medium and added to ARPE-19 cells in 96-well plates.
Isolated bovine outer segments loaded with calcein were supplied to ARPE-19 cells in 96-well plates for 2 hrs, washed 3× and maintained in control medium for an additional 3 hr (see Methods). […] Promising compounds were examined for their effects on cells treated with A2E, although the restoration of pHL is unlikely to remove A2E itself. However, other components of the outer segments are amendable to digestion by lysosomal enzymes at the appropriate pHL, and acidification could minimize the secondary effect of this accumulation.

[4] = test system: primary cultures of bovine RPE cells; test: Lysosomal pH in primary bovine RPE cultures; assay type: cell-based
Procedure: Isolation of Bovine and Mouse RPE Cells: The bovine RPE-choroid and sclera were removed, incubated in 2.5% trypsin at 37° C. in 5% CO2 for 30 min, after which RPE sheets are dissected, washed and plated in 96-well plates with 10% serum medium. Mouse eyes were incubated in DMEM for 3 hrs at room temperature (RT), then in 0.1% trypsin and 0.4 mg/ml collagenase IV with 1 mM EDTA for 45 min at RT. RPE sheets were dissected out, washed, and incubated with 0.25% trypsin/0.02% EDTA in order to obtain a suspension of single cells, then grown as above.
HTS Measurement of pHL: ARPE-19 cells were grown in 96-well plates, rinsed 3× with isotonic solution (IS; prepared from NaCl 105 mM, KCl 5 mM, HEPES Acid 6 mM, Na HEPES 4 mM, NaHCO3 5 mM, mannitol 60 mM, glucose 5 mM, MgCl2 0.5 mM, CaCl2 1.3 mM) and incubated with 5 μM LysoSensor Yellow/Blue (Invitrogen Corp.) diluted with IS. Extensive trials determined that the optimal response is obtained with 5 minute dye loading and 15 minute post-incubation. Fluorescence was measured with a Fluoroskan 96-well Plate Reader (Thermo Electron Corp.). pHL was determined from the ratio of light excited at 340 nm vs 380 nm ([…] em). pHL was calibrated by exposing cells to 10 μM H^+/Na^+ ionophore monensin and 20 μM H^+/K^+ ionophore nigericin in 20 MES, 110 KCl and 20 NaCl at pH 3.0-7.0 for 15 min. All reagents were from Sigma Chemical Corp. unless otherwise indicated.

[5] = test system: ABCA4−/− mice; test: Oral P2Y12 inhibitor in ABCA4-/- mice, lysosomal pH of RPE cells; assay type: in vivo, mouse; settings: 9-11 month old mice, 50 mg/kg orally, single dose, cells removed 4 hrs later
Procedure: In this example the selected P2Y12 inhibitor was clopidogrel (commercially available as Plavix), but the invention need not be so limited, and other P2Y12 inhibitors, such as AR-C66096, may be used. The clopidogrel was given orally at 50 mg/kg and the pH measured from RPE cells that were removed 4 hrs later.

Nc1ncnc2c1nc(Br)n2[C@@H]1O[C@@H]2COP(=O)(O)O[C@H]2[C@H]1O [8-Br-cAMP, 8-bromo-adenosine 3′,5′-cyclic monophosphate]
effect on pHL of cells treated with 10 μM tamoxifen [1]: not significant

C[C@]12CC[C@@H]3c4ccc(O)cc4CC[C@H]3[C@@H]1CC[C@@H]2O [17-β estradiol]
effect on pHL of cells treated with tamoxifen [1]: neither mimicked, nor inhibited

CCCSc1nc(N)c2ncn([C@@H]3O[C@H](COP(=O)([O-])OP(=O)([O-])C(F)(F)P(=O)([O-])[O-])[C@@H](O)[C@H]3O)c2n1.[Na+].[Na+].[Na+].[Na+] [AR-C66096, 2-(Propylthio) adenosine-5′-O-(β,γ-difluoromethylene) triphosphate tetrasodium salt]
effect on pHL elevation by P2Y12 agonist MeSADP ([1]; cells stimulated with MeSADP): inhibited these actions and restored lysosomal acidity
effect on autofluorescence enhanced by POS+CHQ [2]: reduced this enhanced auto-fluorescence to near control levels

CCOc1ccc(Nc2ccc(/C(=C3C=C/C(=[N+](/CC)Cc4cccc(S(=O)(=O)[O-])c4)C=C/3C)c3ccc(N(CC)Cc4cccc(S(=O)(=O)[O-])c4)cc3C)cc2)cc1.[Na+] [BBG]
effect on pHL rise by P2X7 agonist BzATP ([1]; cells stimulated with BzATP): prevented this rise
effect on autofluorescence enhanced by POS+CHQ [2]: reduced this enhanced autofluorescence

O=C(O)c1ccc(/C=C2\SC(=S)N(c3cccc(C(F)(F)F)c3)C2=O)cc1 [CFTR-172]
effect on pHL, agent alone [1]: increased lysosomal pH

CCNC(=O)[C@H]1O[C@@H](n2cnc3c(N)nc(NCCc4ccc(CCC(=O)O)cc4)nc32)[C@H](O)[C@@H]1O [CGS21680]
degradative capacity (outer segment clearance) in chloroquine-treated cells ([3]; 100 nM CGS with 20 μM CHQ, 24 hrs): restored the degradative capacity
effect on pHL of cells treated with 10 μM tamoxifen [1]: Over half of the increase triggered by 10 μM tamoxifen was reversed
effect on pHL of cells treated with chloroquine [1]: decreased the lysosomal alkalinization
effect on pHL of cells treated with tamoxifen [1]: acidified the lysosomes

OC[C@H]1O[C@@H](n2cnc3c(NC4CCCC4)ncnc32)[C@H](O)[C@@H]1O [CPA, N^6-cyclopentyl-adenosine]
effect on pHL of cells treated with tamoxifen [1]: had no effect

OC[C@H]1O[C@@H](n2cnc3c(NC4CC5CCC4C5)ncnc32)[C@H](O)[C@@H]1O (stereo partly drawn) [ENBA, (2S)-N^6-[2-endo-norbornyl]adenosine]
effect on pHL of cells treated with tamoxifen [1]: had no effect

CSc1nc(N)c2ncn([C@@H]3O[C@H](COP(=O)(O)OP(=O)(O)O)[C@@H](O)[C@H]3O)c2n1 [MeSADP]
effect on pHL, agent alone [1]: elevated the lysosomal pHL

CCNC(=O)[C@H]1O[C@@H](n2cnc3c(N)ncnc32)[C@H](O)[C@@H]1O [NECA, 5′-(N-ethylcarboxamido) adenosine]
effect on pHL of cells treated with tamoxifen [1]: reversed lysosomal alkalinization by tamoxifen
effect on pHL of bovine cells treated with tamoxifen [4]: not quite significant

O=C(O)c1cc([N+](=O)[O-])ccc1NCCCc1ccccc1 [NPPB, 5-nitro-2-(3-phenylpropylamino)-benzoate]
effect on pHL of cells treated with tamoxifen [1]: reversed

Nc1ncnc2c1ncn2[C@@H]1O[C@H](CO)[C@@H](O)[C@H]1O [adenosine]
effect on pHL of cells treated with tamoxifen [1]: reduce the pHL
effect on pHL of bovine cells treated with tamoxifen [4]: acidified the lysosomes

CO/C1=C\C(C)=C\[C@@H](C)[C@@H](O)[C@@H](C)C/C(C)=C/C=C/[C@H](OC)[C@@H]([C@@H](C)[C@@H](O)[C@H](C)[C@@]2(O)C[C@@H](O)[C@H](C)[C@@H](C(C)C)O2)OC1=O [bafilomycin-A]
effect on pHL, agent alone [1]: pH was elevated

CCN(CC)CCCC(C)Nc1ccnc2cc(Cl)ccc12 (stereo not shown) [chloroquine]
effect on pHL, agent alone [1]: pH was elevated
autofluorescence, agent alone ([2]; 10 μM for 7 days): increased autofluorescence

COC(=O)[C@H](c1ccccc1Cl)N1CCc2sccc2C1 [clopidogrel]
lysosomal pHL in RPE cells after single oral dose [5]: reduced

Nc1ncnc2c1nc(Sc1ccc(Cl)cc1)n2[C@@H]1O[C@@H]2COP(=O)([O-])O[C@H]2[C@H]1O.[Na+] [cpt-cAMP, 8-(4-chlorophenylthio) adenosine-3′,5′-cyclic monophosphate]
effect on pHL of cells treated with 10 μM tamoxifen [1]: significantly decreased pHL
effect on pHL of cells treated with 30 μM tamoxifen [1]: significantly decreased pHL

CCN[C@H]1C[C@H](C)S(=O)(=O)c2sc(S(N)(=O)=O)cc21 [dorzolamide]
effect on pHL of cells treated with 30 μM tamoxifen [1]: did not lower pHL

CNC[C@H](O)c1ccc(O)c(O)c1 [epinephrine]
effect on pHL of cells treated with tamoxifen [1]: significantly decrease pHL

O=c1c(-c2ccc(O)cc2)coc2cc(O)cc(O)c12 [genistein]
effect on pHL, agent alone [1]: smaller effects
effect on pHL of cells treated with tamoxifen [1]: acidified lysosomes

COc1ccc(Cl)cc1C(=O)NCCc1ccc(S(=O)(=O)NC(=O)NC2CCCCC2)cc1 [glybenclamide]
effect on pHL, agent alone [1]: smaller effects
effect on pHL of cells treated with tamoxifen [1]: increased pHL

CC(C)NCC(O)c1ccc(O)c(O)c1 (stereo not shown) [isoproterenol]
effect on pHL of cells treated with tamoxifen [1]: significantly decrease pHL

CC(C)OC(=O)CCC/C=C\C[C@@H]1[C@@H](CC[C@@H](O)CCc2ccccc2)[C@H](O)C[C@@H]1O [latanaprost]
effect on pHL of cells treated with 30 μM tamoxifen [1]: did not lower pHL

NC[C@H](O)c1ccc(O)c(O)c1 [norepinephrine]
effect on pHL of cells treated with chloroquine [1]: reduced pHL
effect on pHL of cells treated with tamoxifen [1]: significantly decrease pHL

CNC[C@H](O)c1cccc(O)c1 [phenylephrine]
effect on pHL of cells treated with tamoxifen [1]: no significant effect on pHL

CN[C@@H]1C[C@H]2O[C@@](C)([C@@H]1OC)n1c3ccccc3c3c4c(c5c6ccccc6n2c5c31)C(=O)NC4 [staurosporine]
effect on pHL of cells treated with tamoxifen [1]: decrease in lysosomal pH

CC/C(=C(\c1ccccc1)c1ccc(OCCN(C)C)cc1)c1ccccc1 [tamoxifen]
clearance of calcein-labeled outer segments, alkalinizing agent alone ([3]; after 24 hrs): slowed clearance of outer segments
time for elevated lysosomal pH to reach a plateau [1]: 10-15 minutes
effect on pHL, agent alone [1]: raised pHL
effect on pHL, agent alone [4]: increased pHL

CC(C)(C)NC[C@H](O)COc1nsnc1N1CCOCC1 [timolol]
effect on pHL of cells treated with 30 μM tamoxifen [1]: did not lower pHL
effect on the reduction of pHL triggered by norepinephrine ([1]; cells treated with tamoxifen plus norepinephrine): blocked
